# Assay results taken from PMC9942793 (Proceedings of the National Academy of Sciences of the …, 2023).
# Molecular target: T1, SLO3 (Homo sapiens, UniProt A8MYU2)
# T1 sequence (A8MYU2 1-1149): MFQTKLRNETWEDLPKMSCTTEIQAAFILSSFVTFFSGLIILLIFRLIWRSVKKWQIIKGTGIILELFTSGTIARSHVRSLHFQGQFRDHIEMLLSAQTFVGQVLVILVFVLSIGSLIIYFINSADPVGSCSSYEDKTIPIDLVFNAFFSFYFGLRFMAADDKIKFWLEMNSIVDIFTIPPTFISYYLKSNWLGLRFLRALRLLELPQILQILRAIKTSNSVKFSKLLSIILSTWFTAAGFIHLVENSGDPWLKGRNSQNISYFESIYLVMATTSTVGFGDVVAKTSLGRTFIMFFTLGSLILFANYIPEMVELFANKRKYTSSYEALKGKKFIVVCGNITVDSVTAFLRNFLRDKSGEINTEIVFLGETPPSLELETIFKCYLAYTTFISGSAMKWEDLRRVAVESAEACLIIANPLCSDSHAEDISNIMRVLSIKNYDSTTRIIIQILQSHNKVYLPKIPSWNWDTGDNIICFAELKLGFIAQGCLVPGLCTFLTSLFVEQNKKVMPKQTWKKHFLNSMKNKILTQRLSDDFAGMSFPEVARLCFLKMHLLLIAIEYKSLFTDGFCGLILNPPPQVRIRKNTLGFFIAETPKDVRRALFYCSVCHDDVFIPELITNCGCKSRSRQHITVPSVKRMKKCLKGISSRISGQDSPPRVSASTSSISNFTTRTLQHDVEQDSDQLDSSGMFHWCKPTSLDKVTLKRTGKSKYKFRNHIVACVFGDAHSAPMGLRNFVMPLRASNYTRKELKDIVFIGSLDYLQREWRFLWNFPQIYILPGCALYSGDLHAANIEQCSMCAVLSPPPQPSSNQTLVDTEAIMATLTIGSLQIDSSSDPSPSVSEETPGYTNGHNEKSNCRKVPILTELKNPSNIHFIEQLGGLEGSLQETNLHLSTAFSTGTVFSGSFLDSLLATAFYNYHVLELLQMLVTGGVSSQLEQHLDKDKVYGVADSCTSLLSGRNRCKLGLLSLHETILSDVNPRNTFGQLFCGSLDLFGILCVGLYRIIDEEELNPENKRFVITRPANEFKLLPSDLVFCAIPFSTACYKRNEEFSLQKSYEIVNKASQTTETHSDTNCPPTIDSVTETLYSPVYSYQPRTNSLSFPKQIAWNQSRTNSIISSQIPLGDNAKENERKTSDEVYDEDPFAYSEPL
# T1 sequence (Q8N7C0 24-313 partner): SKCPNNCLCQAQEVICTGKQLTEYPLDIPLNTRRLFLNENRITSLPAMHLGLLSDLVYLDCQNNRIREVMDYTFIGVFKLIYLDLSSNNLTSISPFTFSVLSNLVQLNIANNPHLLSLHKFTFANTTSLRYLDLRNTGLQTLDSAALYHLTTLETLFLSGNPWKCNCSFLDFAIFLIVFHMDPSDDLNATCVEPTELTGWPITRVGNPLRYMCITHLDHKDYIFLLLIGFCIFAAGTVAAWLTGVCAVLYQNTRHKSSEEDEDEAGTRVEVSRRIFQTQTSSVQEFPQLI
# Assay: Tl+ flux assay
# Type: cell-based
smiles,measurement,value
FC(F)(F)c1cc(NC(=S)Nc2ccc(Br)cc2-c2nnn[nH]2)cc(C(F)(F)F)c1 [NS11021],Tl+ flux assay (activation; 100 μM used in the screen),found that the SLO1 activator NS11021 also activates SLO3 at high concentrations (Fig. 1B)
